Laboratory results from patent US10238670B2, “9-aminomethyl minocycline compounds and methods of use thereof in urinary tract infection (UTI) treatment” (Paratek Pharmaceuticals, Inc., priority 2016, dated 2019).
Like-named read-outs stand apart in the source and are kept apart here.

Tests used:
[1] = test system: E. coli (ATCC 25922) biofilm; assay: MBEC assay, activity against established 24 hour biofilm; assay type: cell-based, Escherichia coli; settings: 24 hours challenge
Method: (§1) The MBEC™ assay (formerly the Calgary biofilm device; Innovotech Inc., Canada) is a well-established high throughput assay for assessment of anti-biofilm activity of test agents in a 96-well format. Within this assay, the biofilm is formed on the plastic pegs of the plate lid. After inoculated media is introduced to the wells of the 96-well plate, the plate is placed in a shaking incubator to generate the necessary shear force for biofilm growth on the pegs. Following a suitable incubation time, the individual biofilms can be treated with varying concentrations of test agents (challenge plate). After the desired treatment time, the remaining biofilm-associated bacteria are retrieved from the pegs through sonication (recovery plate). Serial dilution and/or plating of the recovered bacterial suspension allow for the quantification of test agents' efficacy against pre-formed biofilms. Additionally, readout of the challenge plate from the biofilm treatment can be used to determine MIC values of test agents. The absence of growth in the recovery plate indicates complete biofilm eradication and the lowest concentration of a test agent that achieves this is designated as the minimum biofilm eradication concentration (MBEC). The MBEC™ assay is also amenable to assess potential synergistic effects of combination treatments, as well as efficacy of test agents in inhibiting or inducing biofilm formation. The MBEC™ plates were inoculated with 10^7 CFU/mL of stationary phase E. coli (ATCC 25922) and incubated for 24 hours to allow formation of a robust biofilm. The individual biofilms formed on the pegs were challenged with varying concentrations of antibiotics for 24 hours, followed by recovery of the surviving bacteria. Bacterial enumeration was performed using a Most Probable Number (MPN) assay (Sutton, Journal of Validation Technology 16 (3): 35-38, 2010, incorporated herein by reference) in a 96-well format.

[2] = test system: E. coli (ATCC 25922) biofilm; assay: MBEC assay, inhibition of biofilm formation; assay type: cell-based, Escherichia coli
Method: as §1, with “formation.” for “formation. The MBEC™ plates were inoculated with 10^7 CFU/mL of stationary phase E. coli (ATCC 25922) and incubated for 24 hours to allow formation of a robust biofilm. The individual biofilms formed on the pegs were challenged with varying concentrations of antibiotics for 24 hours, followed by recovery of the surviving bacteria. Bacterial enumeration was performed using a Most Probable Number (MPN) assay (Sutton, Journal of Validation Technology 16 (3): 35-38, 2010, incorporated herein by reference) in a 96-well format.”
The MBEC™ plates were inoculated with either 10^5 CFU/mL (low inoculum) or 10^7 CFU/mL (high inoculum) of stationary phase E. coli (ATCC 25922) with simultaneous addition of antibiotics to evaluate the progression of biofilm formation under antibiotic challenge. After 24 hour incubation, the bacteria were recovered and enumerated (as above). FIG. 6. […] FIG. 7.

[3] = IV to oral transition therapy; cUTI; cited from earlier work
human plasma protein = settings: cited from earlier work
[4] = IV; cIAI; cited from earlier work

Row | Compound | reduction of total biofilm-associated bacteria ([1]; at around MIC) | reduction in bioburden ([1]; at higher concentrations) | reduction in total bioburden of biofilm compared to control ([2]; (approx. 15% of MIC), low inoculum) | induction of biofilm formation ([2]; sub-MIC doses) | primary endpoint, non-inferiority compared to levofloxacin [3] | human plasma protein binding (human plasma protein; Concentration 100 ng/mL, literature) [%] | human plasma protein binding (human plasma protein; Concentration 1,000 ng/mL, literature) [%] | human plasma protein binding (human plasma protein; Concentration 10,000 ng/mL, literature) [%] | human plasma protein binding (human plasma protein; Concentration 100,000 ng/mL, literature) [%] | type of plasma protein binding (human plasma protein; binding increases with increasing drug concentrations) | human plasma protein binding, Mean (human plasma protein; literature) | primary endpoint [4]
1 | O=C(O)c1cn(C2CC2)c2cc(N3CCNCC3)c(F)cc2c1=O [ciprofloxacin] | did not show activity | up to 5 log units | no reduction in the total bioburden | did not induce biofilm formation | – | – | – | – | – | – | – | –
2 | CN(C)[C@@H]1C(O)=C(C(N)=O)C(=O)[C@@]2(O)C(O)=C3C(=O)c4c(O)c(NC(=O)CN5CCCC5)cc(F)c4C[C@H]3C[C@@H]12 [eravacycline] | – | – | – | – | failed to achieve its primary endpoint of statistical non-inferiority | 79.3 | 87.0 | 89.3 | 97.0 | atypical, non-linear protein binding | 79-97% | did meet its primary endpoint
